Entries after “also recorded” stand apart in the source; their conditions may differ. No end group written: not given here.
Test system: human insulin autoantibodies
Experiment: Competition with 125I-human insulin for binding to human insulin autoantibodies (competitive binding radioassay)
Details: for affinity / recognition by human insulin autoantibodies: Type I diabetes-associated autoantibodies, relative to human insulin
Method: Insulin autoantibodies isolated from sera of well-characterized first-degree relatives of patients with Type I diabetes mellitus were analyzed in comparative studies by competition with a series of insulins from different species and with insulin analogues. Insulin binding activity was detected using a competitive binding radioassay and expressed in nU of insulin precipitated per ml of sera (1 nU/ml=7.18 fmole/L).

competition with 125I-human insulin for binding to human insulin autoantibodies (autoantibodies isolated from sera of first-degree relatives of Type I diabetes patients) | potency in binding to insulin autoantibodies relative to human insulin | Substance | affinity / recognition by human insulin autoantibodies
failed to compete | – | Guinea pig insulin: guinea pig insulin; differs from human insulin at 18 positions (Insulin B chain FVSRHLCGSNLVETLYSVCQDDGFFYIPKD; Insulin A chain GIVDQCCTGTCTRHQLQSYCN; ends and bridges not checked; cysteine pairing not given here; UniProt P01329 25-54; P01329 90-110, looked up) | essentially not recognized; also recorded: reduced
– | at least as potent as human insulin | human proinsulin | –
– | – | ovine insulins: ovine insulin; differs from human by three amino acids | high-affinity recognition; also recorded: minimal reduction

Reference: US5422339A, “Peptides having insulin autoantibody but not insulin receptor binding capacity” (Joslin Diabetes Center, Inc., priority 1994, dated 1995)
